What was measured:
[1] = Particle size and polydispersity index of nanoparticle compositions (Zetasizer Nano ZS); type: physicochemical
Procedure, shortened: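 In 1×PBS, the compositions were sized on a Zetasizer Nano ZS, which also reported their polydispersity index.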

[2] = Apparent (surface) pKa of the LNP formulation (TNS assay); type: physicochemical; details: for pKa: Table 1A; for App. pKa: Table 3F
Procedure, shortened: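 LNP (0.04 mg/mL mRNA) mixed with TNS reagent in 21 buffers spanning about pH 3-12, in triplicate; fluorescence plotted against pH as sigmoidal curve. Apparent pKa taken as […] curve inflection point; validated in 1× PBS and 20 mM Tris w/8% sucrose.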

[3] = Encapsulation efficiency of RNA (QUANT-IT RIBOGREEN RNA assay); type: physicochemical
Procedure, shortened: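 RiboGreen fluorescence (ex ~480, em ~520 nm) compared between intact samples and Triton X-100-lysed samples after 15 min at 37 °C in TE buffer, pH 7.5. Percent free RNA is the blank-corrected intact/disrupted ratio.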

[4] = system: luciferase (Luc) mRNA; experiment: Luc expression (total flux) after intramuscular administration; type: in vivo, mice; details: for i.m. Lipid/MC3 0.01 mpk, Luc, 6 h: Table 3B
Procedure, shortened: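 Mice given a single intramuscular dose of lipid nanoparticle formulations carrying modified Luc mRNA, alone or with H10 mRNA, at 0.001 or 0.01 mpk total. Luciferase expression recorded as total flux.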

[5] = system: hEPO mRNA; experiment: hEPO expression after intramuscular administration to mice; type: in vivo; details: Table 3I, hEPO
Experimental: The expression of hEPO and cytokine induction in mice intravenously administered a nanoparticle composition at a dose of 0.5 mpk were measured at 3, 6, and 24 hours. […] The expression of hEPO in mice intramuscularly administered a nanoparticle composition from Table 1B at a dose of 0.01 mpk were measured at 3, 6, and 24 hours.
(§1) Blood collection and analysis for hEPO. Blood was collected from mice or rats via the tail vein and hEPO concentrations were determined using a hEPO ELISA assay.

[6] = system: hEPO mRNA; experiment: hEPO expression after intravenous administration to rats; type: in vivo, rat; details: Table 19B; for Lipid/MC3 AUC / Lipid/MC3 ([hEPO] ratio): relative to MC3; for [hEPO]: species, dose and time not given
Experimental: The expression of hEPO and cytokine induction in rats intravenously administered a nanoparticle composition at a dose of 2.0 mpk was measured at 6 h.
(§2) The expression of hEPO in rats intravenously administered a nanoparticle composition at a dose of 0.2 mpk or 2.0 mpk was measured at 6 hours. Table 16 summarize the ratio of hEPO expression levels using various nanoparticle compositions as compared to the hEPO expression level using MC3 formulation and the lipid levels in the liver measured 48 hours after administration, as described above. Tables 17 and 18 summarize the lipid levels in the liver and spleen measured 48 hours after administration of Compounds 28, 33, 53, and 54. Liver and spleen levels represent the average values calculated for 3 rats in each group. As is shown in Tables 17 and 18, less than 10% of Compounds 28, 33, 53, and 54 remained in the liver after 48 hours, while greater than 60% of MC3 remained.
The expression of hEPO induced by intravenous administration to rats of nanoparticle compositions at various doses was measured at 2, 4, 6, 8, 24, and 48 hour time points. FIGS. 3-6 respectively summarize the hEPO expression measured upon intravenous administration of formulations including Compounds 26, 18, 25, and MC3 to rat at various doses. The lipid levels of Compound 26 in the liver after 48 hours were about 19%.
(§3) 005781 The expression of hEPO and lipid levels in the liver and spleen in rats intravenously administered a nanoparticle composition at a dose of 0.2 mpk was measured at various time points. Compounds 18 and 25 were selected for comparison with MC3. Lipids were formulated according to the standard MC3 formulation described above. Rats were administered intravenously a single 0.2 mpk dose and expression monitored at 0.25, 0.5, 1, 2, 4, 8, 24, and 48 hours after administration.
as §1

[7] = Residual lipid levels in rat liver and spleen (UPLC-MS); type: in vivo; details: Table 19B, liver, 24 h
Experimental: At 48 h liver tissue was harvested for lipid quantification. To pre-weighed tissues, Milli-Q water was added (900 μL water per 100 mg tissue). Tissues were homogenized using an Omni probe homogenizer until uniform. 50 μL of samples and matrix calibration standards were aliquoted into a 96-well plate. 50 μL of blank matrix for matrix blanks and control blanks were aliquoted. 400 μL is spiking solution were manually added to all samples except matrix blanks. 400 μL of 50:50 ACN:IPA were manually added to matrix blanks. The plate was covered and the samples vortexed and centrifuged for 5 minutes at >3000 rpm. 200 μL of the samples were transferred into a clean 96-well plate for analysis. Samples were analyzed on a Waters Acquity UPLC using a Higgins Analytical Clipeus C8 column ([…], 30×2.1 mm) and a gradient of either 70-95% or 60-95% (Mobile Phase A: 5 mM ammonium formate in 50:50:1 H2O:MeOH:formic acid; Mobile Phase B: 5 mM ammonium formate in 100:1 MeOH:formic acid) over 1.3 min at 1.2 mL/min (column temperature 55° C.). Detection was based on electrospray ionization (ESI) in positive mode using a Sciex API5500 Mass Spectrometer.
as §2, §3

[8] = Lipid clearance: lipid level in mouse liver tissue (LC-MS/MS); type: in vivo; details: Table 3E, mouse liver
Experimental: Quantification of Lipid by LC-MS/MS: Liver samples were homogenized following addition of 19 eq. (w/v) of water (DF=20). Protein was precipitated and analyzed against calibration standards prepared in matching blank. Chromatographic separation and quantification was accomplished with a LC-MS/MS System. Samples were injected and separated via HPLC A triple-quadrupole MS/MS system operated in positive ion mode was used for signal detection.

[9] = system: luciferase (Luc) mRNA; experiment: Luc expression, whole body bioluminescence after intravenous administration to mice; type: in vivo; details: Table 3E; intravenous
Procedure, shortened: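 Luc mRNA nanoparticle formulations given intravenously to mice (n=6) at 0.5 mg/kg; whole-body bioluminescence imaged at 3, 6 and 24 h. CD-1 mice received IP D-luciferin (200 μL of 15 mg/mL) 15 min before imaging; total flux quantified by region of interest.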

[10] = Table 1A, lipid:DSPC:cholesterol:PEG-DMG 50:10:38.5:1.5 mol %
[11] = Table 1B, formulated with hEPO mRNA

| Structure (SMILES) | PDI ([1]; Table 1A) | Size (nm) [1, 10] | pKa [2] | EE (%) ([3]; Table 1A) | Lipid/MC3 6 h timepoint [5] | Lipid/MC3 AUC [5] | PDI [1, 11] | Size (nm) [1, 11] | AUC (hEPO) [6] | Lipid/MC3 AUC [6] | [hEPO] [6] | EE (%) [3, 11] | % dose remaining, liver, 24 h [7] | other results |
| --- | --- | --- | --- | --- | --- | --- | --- | --- | --- | --- | --- | --- | --- | --- |
| CCCCCCCCCOC(=O)CCCCCCCN(CCCCCCCC(=O)OC(CCCCCCCC)CCCCCCCC)CCCNc1c(N(C)C)c(=O)c1=O [Compound 169, Heptadecan-9-yl 8-((3-((2-(dimethylamino)-3,4-dioxocyclobut-1-en-1-yl)amino)propyl)(8-(nonyloxy)-8-oxooctyl)amino)octanoate] | 0.17 | 87.4 nm | 6.77. | 99.4% | 4.6 | 4.7 | – | – | – | – | – | – | – | App. pKa [2]: 7.63; i.m. Lipid/MC3 0.01 mpk, Luc, 6 h [4]: 3.3 |
| CCCCCCCCCOC(=O)CCCCCCCN(CCCCCCCC(=O)OC(CCCCCCCC)CCCCCCCC)CCCNc1c(NC)c(=O)c1=O [Compound 182, Heptadecan-9-yl 8-((3-((2-(methylamino)-3,4-dioxocyclobut-1-en-1-yl)amino)propyl)(8-(nonyloxy)-8-oxooctyl)amino)octanoate] | 0.14 | 84.4 nm | 6.48 | 99.0% | 1.6 | 1.2 | – | – | – | – | – | – | – | – |
| CCCCCCCCC(CCCCCCCC)OC(=O)CCCCCCCN(CCO)CCCCCCCCCC(=O)OCCCCCCC [Compound 189, Heptyl 10-((8-(heptadecan-9-yloxy)-8-oxooctyl)(2-hydroxyethyl)amino)decanoate] | – | – | – | – | – | – | 0.16 | 95.5 nm | 4.35e+07 pg·h/mL | 2.35 | 3.01e+06 pg/mL | 93.9% | 0.00% | – |
| CCCCCCCCCOC(=O)CCCCCCCN(CCCCCCCC(=O)OC(CCCCCCCC)CCCCCCCC)CCCN/C(=C/[N+](=O)[O-])NC [Compound 170, Heptadecan-9-yl (E)-8-((3-((1-(methylamino)-2-nitrovinyl)amino)propyl)(8-(nonyloxy)-8-oxooctyl)amino)octanoate] | 0.18 | 96.0 nm | 6.31 | 96.7% | 5.9 | 5.7 | – | – | – | – | – | – | – | App. pKa [2]: 6.60; i.m. Lipid/MC3 0.01 mpk, Luc, 6 h [4]: 5.3 |
| CCCCCCCCCOC(=O)CCCCCCCN(CCO)CCCCCC(=O)OC1CCC(CCCCC)CC1 (stereo not drawn) [Compound 232, Nonyl 8-((2-hydroxyethyl)(6-oxo-6-((4-pentylcyclohexyl)oxy)hexyl)amino)octanoate] | – | – | – | – | – | – | 0.23 | 150.3 nm | 73800 pg·h/mL | <0.01 | 7024.114 pg/mL | 76.3% | 0.00% | – |
| CCCCCCCCC(CCCCCCCC)OC(=O)CCCCCCCN(CCO)CCCCCCCC(=O)OCC(C)CCCCCCC (stereo not drawn) [Compound 184, Heptadecan-9-yl 8-((2-hydroxyethyl)(8-((2-methylnonyl)oxy)-8-oxooctyl)amino)octanoate] | 0.13 | 77.2 nm | 6.47 | 94.2% | – | – | 0.16 | 85.8 nm | 1.41e+08 pg·h/mL | 7.64 | 1.05e+07 pg/mL | 96.5% | 0.04% | % Remaining dose at 6 h ([8]; 6 h): 0.282%; % Remaining dose at 24 h ([8]; 24 h): 0%; Lipid/MC3 ([hEPO] ratio) [6]: 7.13; 6 h BLI Lipid/MC3 [9]: 7.46 |
| CCCCCCCCC(CCCCCCCC)OC(=O)CCCCCCCN(CCO)CCCCCC(=O)OC(C)CCCCCCCCOC(C)=O (stereo not drawn) [Compound 235, Heptadecan-9-yl 8-((6-((10-acetoxydecan-2-yl)oxy)-6-oxohexyl)(2-hydroxyethyl)amino)octanoate] | – | – | – | – | – | – | 0.24 | 228 nm | 1.71e+07 pg·h/mL | 0.93 | 1.27e+06 pg/mL | 40.9% | 0.06% | Lipid/MC3 ([hEPO] ratio) [6]: 0.8601 |
| CCCCCCCCCOC(=O)CCCCCCCNCCCCCCCC(=O)OC(CCCCCCCC)CCCCCCCC [Compound 237] | – | – | – | – | – | – | 0.15 | 82.5 nm | 4.09e+07 pg·h/mL | – | 3.47e+06 pg/mL | 99.3% | 0.14% | – |
| CCCCCCCCCOC(=O)CCCCCCCN(CCCCCCCC(=O)OC(CCCCCCCC)CCCCCCCC)CCCNC(=O)COC [Compound 178, Heptadecan-9-yl 8-((3-(2-methoxyacetamido)propyl)(8-(nonyloxy)-8-oxooctyl)amino)octanoate] | 0.12 | 104.2 nm | 6.90 | 94.7% | 10.4 | 9.3 | – | – | – | – | – | – | – | Novel lipid/MC3 expression ratio, 6 hr. time point, i.m. Luc ([4]; intramuscular, relative to MC3 formulation): 7.14 |
| CCCCCCCCCOC(=O)CCCCCCCN(CCCCCCCC(=O)OC(CCCCCCCC)CCCCCCCC)CCCNC(=O)C(C)C [Compound 194, Heptadecan-9-yl 8-((3-isobutyramidopropyl)(8-(nonyloxy)-8-oxooctyl)amino)octanoate] | – | – | – | – | 5.5 | 6.2 | – | – | – | – | – | – | – | – |
| CCCCCCCCCOC(=O)CCCCCCCN(CCCCCCCC(=O)OC(CCCCCCCC)CCCCCCCC)CCCC(N)=O [Compound 243, Heptadecan-9-yl 8-((4-amino-4-oxobutyl)(8-(nonyloxy)-8-oxooctyl)amino)octanoate] | – | – | – | – | – | – | 0.35 | 90.6 nm | 445000 pg·h/mL | 0.02 | 40600 pg/mL | 99.4% | 0.05% | Lipid/MC3 ([hEPO] ratio) [6]: 0.02755 |
| CCCCCCCCCOC(=O)CCCCCCCN(CCO)CCCCCCC(C)OC(=O)C(CCCCCCCC)CCCCCCCC (stereo not drawn) [Compound 234, 8-((2-Hydroxyethyl)(8-(nonyloxy)-8-oxooctyl)amino)octan-2-yl 2-octyldecanoate] | – | – | – | – | – | – | 0.22 | 96.3 nm | 5.17e+07 pg·h/mL | – | 3.56e+06 pg/mL | 94.7% | 0.03% | – |
| CCCCCCCCCOC(=O)CCCCCCCN(CCCCCCCC(=O)OC(CCCCCCCC)CCCCCCCC)CCNC(C)=O [Compound 244, Heptadecan-9-yl 8-((2-acetamidoethyl)(8-(nonyloxy)-8-oxooctyl)amino)octanoate] | – | – | – | – | 0.4 | 0.4 | – | – | – | – | – | – | – | – |

— patent US12263248B2, “Compounds and compositions for intracellular delivery of therapeutic agents” (ModernaTX, Inc., priority 2018, dated 2025)
